What is called solubility (thermodynamic) is solubility found after equilibrating the solid with the medium.

The source of these data is patent US5948437A, “Pharmaceutical compositions using thiazepine” (Zeneca Limited, priority 1997, dated 1999).

Series [1] can be described thus: physchem. Conditions: water.
For series [2] the following is noted: compound and its pharmaceutically acceptable salts; cited from earlier work.

The structures appear in SMILES notation. Counter-ions that a name gives are not always drawn.

`OCCOCCN1CCN(C2=Nc3ccccc3Sc3ccccc32)CC1` [hemifumarate salt, 11-[4-[2-(2-hydroxyethoxy)ethyl]-1-piperazinyl]dibenzo[b,f][1,4]-thiazepine] came in with a solubility (thermodynamic) in series [1] of 3290 µg/mL. With `OCCOCCN1CCN(C2=Nc3ccccc3Sc3ccccc32)CC1` [11-[4-[2-(2-hydroxyethoxy)ethyl]-1-piperazinyl]-dibenzo[b,f][1,4]thiazepine], the antidopaminergic activity entry in series [2] is listed as “exhibit useful antidopaminergic activity”.
